According to patent US11465989B2, “Guanidine compounds and use thereof” (IMMUNOMET THERAPEUTICS INC., priority 2014, dated 2022):
Structures can show the parent of a compound that is named as a salt.

Assays:
U937 cell = experiment: In vitro combination study with GDC0941 on U937 cell; assay type: cell-based
Description: A549, H1975 (CRL5908, ATCC) or U937 cell (CRL1593.2™, ATCC) lines were cultured in RPMI 1640 media (Lifetechnologies, CA) with supplement of 10% FBS and antibiotic-antimycotic (Lifetechnologies, CA). Dasatinib (Combi-Blocks, San Diego, Calif.) is Bcr-Abl-tyrosine kinase inhibitor and Src family tyrosine kinase inhibitor approved for CML treatment. GDC094 (Selleckchem, Houston, Tex.) is a pan-PI3K inhibitor and effective in various cancer cells. H1975 or A549 cells were dissociated from culture plate using 0.5% trypsin-EDTA (Lifetechnologies, CA) and were suspended. U937 cells were spun down using centrifugation. […]
Among four concentrations of the compounds of present invention, the highest concentration was set to IC80 and the lowest concentration was approximately IC30. […] 100 μl of DMSO was added after removing MTT solution from each well, and were read by VICTOR X3 Multilabel Counter at the wavelength of 550 nm.
For the analysis of U937 cell viability, 20 μl of Celltiter96® AQueous one solution (MTS, Promega, Madison, Wis.) were added to each well, and plates were incubated at 37° C. and 5% CO2. After 2 hours later, plates read by VICTOR X3 Multilabel Counter at the wavelength of 490 nm. The combination index (CI value) was calculated using Calcusyn (Biosoft, UK).

A549 cells = experiment: Inhibition of OCR (XF Analyzer); assay type: cell-based; details: Homo sapiens, A549, 24 h
From the text: The electron transfer complex in mitochondria is composed of 5 complexes. The complex I accept electrons from NADH produced from glycolysis and TCA cycle and the electrons move to complex […] and the electron is finally transferred to O2 and water molecule is generated. During the electron transfer, proton gradient is generated and the chemical gradient is a driving source to synthesize ATP at complex V. The mitochondrial inhibition of complex I indirectly assessed by measuring the oxygen consumption rate (OCR) at complex IV. […] The solution outside of cells becomes acidic (lower pH) as lactate is transported to outside of cells. OCR and Extracellular acidification rate (ECAR) are determined by XF Analyzer (Seahorse Biosciences).
A549 cells were purchased from American Type Tissue Culture Collection ([…]) and cultured in RPMI 1640 supplied with 10% fetal bovine serum (FBS) and antibiotic-antimycotic (Lifetech, CA). A549 cells were separated with 0.5% Trypsin-EDTA and 3,000 cells were plated on 1 mg/ml poly-D-lysine (Sigma, P6407) coated XF 96 well […]. A549 cells were allowed to adhere to the wells for 24 hours under the condition of temperature, 37° C. and 5% CO2 The sensor cartridge of XF Analyzer was soaked in 200 Ad of Calibrant solution (Seahorse, MA) in a clear 96-well plate at 37° C. for 24 hours. The compounds of the present invention were diluted with RPMI 1640 without FBS, transferred to A549 cells on XF 96 well plate, and incubated further for 23 hours at 37° C. and 5% CO2. After incubation, the compound solution was exchanged with pre-warmed and pH adjusted (pH7.4) XF assay media (Seahorse) supplied with 15 mM D-glucose (Sigma), 15 mM sodium pyruvate (Lifetechnologies, CA) and 4 mM L-glutamine (Lifetechnologies, CA). The compounds of present invention were prepared in XF Assay media and added to the assay plate. The assay plate was equilibrated in XF Analyzer for 1 hour, and the reading were started by sensor cartridge. The cytotoxicity assay was followed using Cyquant (Lifetechnologies, CA) in order to calibrate the inhibition with cytotoxicity of compounds. The concentrations of the compounds were tested at […] and IC50 value was obtained from the inhibited values. That is, from OCR inhibition values at each concentration of the compound, IC50 was calculated according to Prism's dose response curve fitting.
In Table 1, the levels of OCR IC50 are evaluated by the following.

## N=C(N)NC(=N)NCCc1ccc(Cl)c(Cl)c1 [Example 1, N-1-(3,4-dichloro)phenethylbiguanide hydrochloride]
U937 cell
  CI value (combination index): lower than 1
A549 cells
  IC50: > 5 µM
